Data on six compounds can be found in patent US9012448B2, “1,2,4-triazolo[4,3-a]pyridine derivatives and their use as positive allosteric modulators of MGLUR2 receptors” (Janssen Pharmaceuticals, Inc., priority 2010, dated 2015).

The target in one data set is T1, human mGluR2 receptor (Homo sapiens, UniProt Q14416).
T1 construct: expressed in transfected cells; host or cells: CHO cells (membrane preparation)
Put plainly: [35S]GTPγS binding assay, hmGluR2 PAM (membranes from transfected CHO cells, glutamate at EC20). It counts as biochemical. The settings on record: for EC50: in presence of mGluR2 agonist glutamate at a predetermined EC20 concentration, pEC50 = -log EC50 (M), at least 8 concentrations; for GTPγS - hmGluR2 PAM Emax / Emax: relative maximal effect (maximal % effect relative to the control glutamate response), glutamate at EC20. An excerpt: The compounds provided in the present invention are positive allosteric modulators of mGluR2. These compounds appear to potentiate glutamate responses by binding to an allosteric site other than the glutamate binding site. The response of mGluR2 to a concentration of glutamate is increased when compounds of Formula (I) are present. Compounds of Formula (I) are expected to have their effect substantially at mGluR2 by virtue of their ability to enhance the function of the receptor. The effects of positive allosteric modulators tested at mGluR2 using the [^35S]GTPγS binding assay method described below and which is suitable for the identification of such compounds, and more particularly the compounds according to Formula (I), are shown in Table 3.
The [^35S]GTPγS binding assay is a functional membrane-based assay used to study G-protein coupled receptor (GPCR) function whereby incorporation of a non-hydrolysable form of GTP, [^35S]GTPγS (guanosine 5′-triphosphate, labelled with […] ^35S), is measured. The G-protein a subunit catalyzes the exchange of guanosine 5′-diphosphate (GDP) by guanosine triphosphate (GTP) and on activation of the GPCR by an agonist, [^35S]GTPγS, becomes incorporated and cannot be cleaved to continue the exchange cycle (Harper (1998) Current Protocols in Pharmacology 2.6.1-10, John Wiley & Sons, Inc.). […] Here we describe the use of the [^35S]GTPγS binding assay using membranes from cells transfected with the human mGluR2 receptor and adapted from Schaffhauser et al. ((2003) Molecular Pharmacology 4:798-810) for the detection of the positive allosteric modulation (PAM) properties of the compounds of this invention.
CHO-cells were cultured to pre-confluence and stimulated with 5 mM butyrate for 24 h. Cells were then collected by scraping in PBS and cell suspension was centrifuged (10 min at 4000 RPM in benchtop centrifuge). Supernatant was discarded and pellet gently resuspended in 50 mM Tris-HCl, pH 7.4 by mixing with a vortex and pipetting up and down. The suspension was centrifuged at 16,000 RPM (Sorvall RC-5C plus rotor SS-34) for 10 minutes and the supernatant discarded. The pellet was homogenized in 5 mM Tris-HCl, pH 7.4 using an ultra-turrax homogenizer and centrifuged again (18,000 RPM, 20 min, 4° C.). The final pellet was resuspended in 50 mM Tris-HCl, pH 7.4 and stored at −80° C. in appropriate aliquots before use. Protein concentration was determined by the Bradford method (Bio-Rad, USA) with bovine serum albumin as standard.
Measurement of mGluR2 positive allosteric modulatory activity of test compounds was performed as follows. Test compounds and glutamate were diluted in assay buffer containing 10 mM HEPES acid, 10 mM HEPES salt, pH 7.4, 100 mM NaCl, 3 mM MgCl2 and 10 μM GDP. Human mGlu2 receptor-containing membranes were thawed on ice and diluted in assay buffer supplemented with 14 μg/ml saponin. Membranes were pre-incubated with compound alone or together with a predefined (˜EC20) concentration of glutamate (PAM assay) for 30 min at 30° C. After addition of [^35S]GTPγS (f.c. 0.1 nM), assay mixtures were shaken briefly and further incubated to allow [^35S]GTPγS incorporation on activation (30 minutes, 30° C.). Final assay mixtures contained 7 μg of membrane protein in 10 mM HEPES acid, 10 mM HEPES salt, pH 7.4, 100 mM NaCl, 3 mM MgCl2, 10 μM GDP and 10 μg/ml saponin. Total reaction volume was 200 μl. Reactions were terminated by rapid filtration through Unifilter-96 GF/B plates (Perkin Elmer, Massachusetts, USA) using a 96-well filtermate universal harvester. Filters were washed 6 times with ice-cold 10 mM NaH2PO4/10 mM Na2HPO4, pH 7.4. Filters were then air-dried, and 40 μl of liquid scintillation cocktail (Microscint-O) was added to each well. Membrane-bound radioactivity was counted in a Microplate Scintillation and Luminescence Counter from Perkin Elmer. […]

T1 sequence (Q14416 19-872): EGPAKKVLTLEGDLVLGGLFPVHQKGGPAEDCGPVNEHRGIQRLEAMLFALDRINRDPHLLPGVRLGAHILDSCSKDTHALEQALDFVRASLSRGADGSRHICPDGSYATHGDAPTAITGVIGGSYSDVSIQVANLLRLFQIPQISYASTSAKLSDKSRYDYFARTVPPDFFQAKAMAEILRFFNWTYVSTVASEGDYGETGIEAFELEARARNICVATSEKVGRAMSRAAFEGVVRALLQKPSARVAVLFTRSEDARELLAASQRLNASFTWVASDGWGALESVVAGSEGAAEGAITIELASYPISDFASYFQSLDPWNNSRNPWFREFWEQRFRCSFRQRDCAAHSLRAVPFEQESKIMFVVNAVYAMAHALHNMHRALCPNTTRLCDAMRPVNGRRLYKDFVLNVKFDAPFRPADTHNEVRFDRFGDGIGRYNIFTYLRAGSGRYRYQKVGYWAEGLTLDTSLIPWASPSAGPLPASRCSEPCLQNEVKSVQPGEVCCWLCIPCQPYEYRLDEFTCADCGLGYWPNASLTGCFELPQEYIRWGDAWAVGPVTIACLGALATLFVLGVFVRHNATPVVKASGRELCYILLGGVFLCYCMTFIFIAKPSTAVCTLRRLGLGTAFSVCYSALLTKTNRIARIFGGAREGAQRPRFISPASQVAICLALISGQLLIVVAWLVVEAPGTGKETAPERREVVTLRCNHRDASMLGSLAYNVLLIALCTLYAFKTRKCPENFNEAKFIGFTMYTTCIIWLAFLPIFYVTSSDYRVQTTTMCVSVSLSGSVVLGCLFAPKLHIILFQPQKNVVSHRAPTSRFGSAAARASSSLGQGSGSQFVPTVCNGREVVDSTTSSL

Take `CC1(c2ccccc2F)COCCN1Cc1ccn2c(CC3CC3)nnc2c1C(F)(F)F` (single isomer, unassigned) [Compound 4b, 3-(Cyclopropylmethyl)-7-{[(3*S)-3-(2-fluorophenyl)-3-methylmorpholin-4-yl]methyl}-8-(trifluoromethyl)[1,2,4]triazolo[4,3-a]pyridine]: on human mGluR2 receptor, the EC50 was 1.95e-07 M and the “GTPγS - hmGluR2 PAM Emax” value is given as 52%.
As to `CC1(c2ccccc2F)COCCN1Cc1ccn2c(CC3CC3)nnc2c1C(F)(F)F` (single isomer, unassigned) [Compound 4a, 3-(Cyclopropylmethyl)-7-{[(3*R)-3-(2-fluorophenyl)-3-methylmorpholin-4-yl]methyl}-8-(trifluoromethyl)[1,2,4]triazolo[4,3-a]pyridine], at human mGluR2 receptor, the half-maximal effective concentration (EC50) was 1.82e-07 M and the “GTPγS - hmGluR2 PAM Emax” value turned out to be 108%.
Take `CC1(c2ccc(F)cc2F)COCCN1Cc1ccn2c(CC3CC3)nnc2c1C(F)(F)F` (single isomer, unassigned) [Compound 5b, 3-(Cyclopropylmethyl)-7-{[(3*S)-3-(2,4-difluorophenyl)-3-methylmorpholin-4-yl]methyl}-8-(trifluoromethyl)[1,2,4]triazolo[4,3-a]pyridine]: on human mGluR2 receptor, the EC50 was 1.38e-07 M and the “GTPγS - hmGluR2 PAM Emax” value was 126%.
Turning to `FC(F)(F)c1c(CN2CCOC[C@@H]2c2ccccc2)ccn2c(CC3CC3)nnc12` [Compound 2, 3-(Cyclopropylmethyl)-7-[[(3S)-3-phenyl-4-morpholinyl]methyl]-8-(trifluoromethyl)-1,2,4-triazolo[4,3-c]pyridine], at human mGluR2 receptor, the EC50 is 4.27e-07 M and the maximal effect (Emax) amounted to 136%.
As to `CC1(c2ccc(F)cc2F)COCCN1Cc1ccn2c(CC3CC3)nnc2c1C(F)(F)F` (single isomer, unassigned) [Compound 5a, 3-(Cyclopropylmethyl)-7-{[(3*R)-3-(2,4-difluorophenyl)-3-methylmorpholin-4-yl]methyl}-8-(trifluoromethyl)[1,2,4]triazolo[4,3-a]pyridine], at human mGluR2 receptor, the EC50 was 2e-07 M and the “GTPγS - hmGluR2 PAM Emax” value amounted to 101%.
`FC(F)(F)c1c(CN2CCOC[C@H]2c2ccccc2)ccn2c(CC3CC3)nnc12` [Compound 1, 3-(Cyclopropylmethyl)-7-[[(3R)-3-phenyl-4-morpholinyl]methyl]-8-(trifluoromethyl)-1,2,4-triazolo[4,3-c]pyridine] displayed a melting point of 69.2 °C. In addition, on human mGluR2 receptor, the concentration giving a half-maximal response (EC50) was 1.7e-07 M and the Emax was 238%.
